From ChEMBL document CHEMBL3045263, “Novel 2-thiopyrimidine derivatives as CDK2 inhibitors: molecular modeling, synthesis, and anti-tumor activity evaluation” (Med Chem Res, 2013)

Tested on: HeLa
Test: Antitumor activity against Homo sapiens (human) HeLa cells assessed as inhibition of cell proliferation after 48 hr by SRB assay
Assay type: functional, cell-based

| Structure (SMILES) | IC50 [nM] |
| --- | --- |
| COc1ccc(-c2nc(Nc3ccc(S(N)(=O)=O)cc3)nc(N3N=C(C)CC3=O)c2C#N)cc1OC | 46 |
| CCOC1=NN(c2nc(Nc3ccc(S(N)(=O)=O)cc3)nc(-c3ccc(OC)c(OC)c3)c2C#N)C(=O)C1 | 42 |
| COc1ccc(-c2nc(Nc3ccc(S(N)(=O)=O)cc3)n3c(=O)[nH]nc3c2C#N)cc1OC | 47 |
| COc1ccc(-c2nc(Nc3ccc(S(N)(=O)=O)cc3)nc(-n3nc(C)cc3C)c2C#N)cc1OC | 41 |
| COc1ccc(C2=C(C#N)C3=NCC(=O)N3C(Nc3ccc(S(N)(=O)=O)cc3)=N2)cc1OC | 42 |
| COc1ccc(-c2nc(Nc3ccc(S(N)(=O)=O)cc3)n3nnnc3c2C#N)cc1OC | 39 |
| COc1ccc(-c2nc(Nc3ccc(S(N)(=O)=O)cc3)n3c(C)nnc3c2C#N)cc1OC | 48 |
| COc1cccc2c1C(=O)c1c(O)c3c(c(O)c1C2=O)C[C@@](O)(C(=O)CO)C[C@@H]3O[C@H]1C[C@H](N)[C@H](O)[C@H](C)O1 [DOXORUBICIN] | 16 |
